Experimental data: PubChem BioAssay AID330 (DTP/NCI, 2004)
Several values for one entry are separate records, joined by “and”; a condition that tells them apart may be missing. Equal values may be shown once. Inconclusive results and toxic doses are left out. How the source made its calls: active means survival T/C of 150% or more; inactive means T/C below 125% in these data.

Test system: P388 leukemia ip, CD2F1 mice, survival T/C
Test: NCI In Vivo Anticancer Drug Screen. Data for tumor model P388 Leukemia (intraperitoneal) in CD2F1 (CDF1) mice
Details: endpoint: median survival time, higher = longer survival
Procedure, shortened: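 Mice carrying the transplanted tumor received test compound or vehicle. Survival was recorded in each group, and the value is the treated-group measurement divided by that of the vehicle-treated control group.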

[1] = dose: 100.0 mg/kg/injection, schedule: Q04DX003 (ip), vehicle: saline
[2] = dose: 12.5 mg/kg/injection, schedule: Q01DX009 (ip), vehicle: saline with Tween-80
[3] = dose: 25.0 mg/kg/injection, schedule: Q01DX009 (ip), vehicle: saline with Tween-80
[4] = dose: 50.0 mg/kg/injection, schedule: Q01DX009 (ip), vehicle: saline with Tween-80
[5] = dose: 100.0 mg/kg/injection, schedule: Q01DX009 (ip), vehicle: saline with Tween-80

Measured: T/C

CCOP(=O)(N=Nc1ccc(OC)nc1)OCC
inactive: dose: 12.5 mg/kg/injection, schedule: Q01DX005 (ip), vehicle: saline 102 % of control | dose: 25.0 mg/kg/injection, schedule: Q01DX005 (ip), vehicle: saline 109 % of control | dose: 50.0 mg/kg/injection, schedule: Q01DX005 (ip), vehicle: saline 100 % of control | dose: 100.0 mg/kg/injection, schedule: Q01DX005 (ip), vehicle: saline 108 % of control | dose: 1560.0 micrograms/kg/injection, schedule: Q01DX009 (ip), vehicle: saline 104 % of control | dose: 3125.0 micrograms/kg/injection, schedule: Q01DX009 (ip), vehicle: saline 102 % of control | dose: 6250.0 micrograms/kg/injection, schedule: Q01DX009 (ip), vehicle: saline 108 % of control | dose: 12500.0 micrograms/kg/injection, schedule: Q01DX009 (ip), vehicle: saline 106 % of control | dose: 25000.0 micrograms/kg/injection, schedule: Q01DX009 (ip), vehicle: saline 112 % of control

C[n+]1cccc2ccccc21
inactive: [1] 109 % of control

Cc1ccccc1C1C(C#N)C(=O)NC(=O)C1C#N (stereo unspecified)
inactive: dose: 50.0 mg/kg/injection, schedule: Q01DX009 (ip), vehicle: Klucel (hydroxypropylcellulose) (HPC) 102 % of control | dose: 100.0 mg/kg/injection, schedule: Q01DX009 (ip), vehicle: Klucel (hydroxypropylcellulose) (HPC) 106 % of control | dose: 200.0 mg/kg/injection, schedule: Q01DX009 (ip), vehicle: Klucel (hydroxypropylcellulose) (HPC) 110 % of control

COc1cccc2c1C(=O)c1c(O)c3c(c(O)c1C2=O)CC(O)(C(=O)COC(C)C)CC3OC1CC(N)C(O)C(C)O1 (stereo unspecified)
inactive: dose: 3.13 mg/kg/injection, schedule: Q04DX003 (ip), vehicle: water 97 % of control | dose: 6.25 mg/kg/injection, schedule: Q04DX003 (ip), vehicle: water 100 % of control | dose: 12.5 mg/kg/injection, schedule: Q04DX003 (ip), vehicle: water 100 % of control | dose: 25.0 mg/kg/injection, schedule: Q04DX003 (ip), vehicle: water 119 % of control | dose: 50.0 mg/kg/injection, schedule: Q04DX003 (ip), vehicle: water 109 % of control

CC(=O)O[C@@H]1C(C(=O)[C@@H](C)C(C)C)OCOC1C1CC(=O)NC(=O)C1 (stereo partly specified)
inactive: dose: 0.01 mg/kg/injection, schedule: Q01DX009 (ip), vehicle: distilled water + alcohol 100 % of control | dose: 0.03 mg/kg/injection, schedule: Q01DX009 (ip), vehicle: distilled water + alcohol 100 % of control | dose: 0.06 mg/kg/injection, schedule: Q01DX009 (ip), vehicle: distilled water + alcohol 93 % of control | dose: 0.12 mg/kg/injection, schedule: Q01DX009 (ip), vehicle: distilled water + alcohol 98 % of control

CP1(=O)CCC2=C1CCCC2 (stereo unspecified)
inactive: dose: 100.0 mg/kg/injection, schedule: Q04DX003 (ip), vehicle: saline with Tween-80 105 % of control | dose: 200.0 mg/kg/injection, schedule: Q04DX003 (ip), vehicle: saline with Tween-80 107 % of control | dose: 400.0 mg/kg/injection, schedule: Q04DX003 (ip), vehicle: saline with Tween-80 104 % of control

S=C(NC12CC3CC(CC(C3)C1)C2)[NH][Sn]([c]1ccccc1)([c]1ccccc1)[c]1ccccc1
inactive: dose: 0.78 mg/kg/injection, schedule: Q01DX009 (ip), vehicle: saline 92 % of control | dose: 1.56 mg/kg/injection, schedule: Q01DX009 (ip), vehicle: saline 96 % of control | dose: 3.13 mg/kg/injection, schedule: Q01DX009 (ip), vehicle: saline 100 % of control | [2] 117 % of control

CC(=O)Cc1cc(-c2cc(CC(C)=O)nc(N)n2)nc(N)n1
inactive: dose: 60.0 mg/kg/injection, schedule: Q01DX005 (ip), vehicle: saline 96 % of control | dose: 120.0 mg/kg/injection, schedule: Q01DX005 (ip), vehicle: saline 96 % of control | dose: 240.0 mg/kg/injection, schedule: Q01DX005 (ip), vehicle: saline 97 % of control

Cc1nccc2c(C)c3c(cc12)c1ccccc1n3C
inactive: dose: 5.0 mg/kg/injection, schedule: Q01DX005 (ip), vehicle: saline 107 % of control | dose: 10.0 mg/kg/injection, schedule: Q01DX005 (ip), vehicle: saline 107 % of control | dose: 20.0 mg/kg/injection, schedule: Q01DX005 (ip), vehicle: saline 99 % of control

O=C(O)c1ccc(O)c(S)c1
inactive: dose: 100.0 mg/kg/injection, schedule: Q04DX003 (ip), vehicle: alcohol 106 % of control | dose: 200.0 mg/kg/injection, schedule: Q04DX003 (ip), vehicle: alcohol 101 % of control | dose: 400.0 mg/kg/injection, schedule: Q04DX003 (ip), vehicle: alcohol 105 % of control

C=C1C(=O)OC2/C=C(/C)C(OC(C)=O)CC(O)/C(C)=C\C(OC(=O)/C(C)=C\C)C12 (stereo unspecified)
inactive: [2] 100 % of control | [3] 117 % of control | [4] 118 % of control | [5] 114 % of control

C=C(C)C1CCC2(C)C1CCC1(C)C2CCC2C3(C)C4OC(OC4=O)C(C)(C)C3CCC21C (stereo unspecified)
inactive: dose: 25.0 mg/kg/injection, schedule: Q01DX005 (ip), vehicle: DMSO 98 % of control | dose: 50.0 mg/kg/injection, schedule: Q01DX005 (ip), vehicle: DMSO 100 % of control | dose: 100.0 mg/kg/injection, schedule: Q01DX005 (ip), vehicle: DMSO 100 % of control | dose: 200.0 mg/kg/injection, schedule: Q01DX005 (ip), vehicle: DMSO 113 % of control | dose: 400.0 mg/kg/injection, schedule: Q01DX005 (ip), vehicle: DMSO 108 % of control

C[n+]1ccccc1C#N
inactive: dose: 12.5 mg/kg/injection, schedule: Q01DX009 (ip), vehicle: saline 109 % of control | dose: 25.0 mg/kg/injection, schedule: Q01DX009 (ip), vehicle: saline 104 % of control | dose: 50.0 mg/kg/injection, schedule: Q01DX009 (ip), vehicle: saline 104 % of control

COC(=O)/C(C(C)=O)=C1\C(=O)OCC1(C)C
inactive: [1] 102 % of control | dose: 200.0 mg/kg/injection, schedule: Q04DX003 (ip), vehicle: saline 105 % of control | dose: 400.0 mg/kg/injection, schedule: Q04DX003 (ip), vehicle: saline 100 % of control

COc1ccc2c3c1OC1C(O)C=CC4C(C2)N(C)CCC341 (stereo unspecified)
inactive: dose: 3.12 mg/kg/injection, schedule: Q01DX009 (ip), vehicle: saline with Tween-80 102 % of control | dose: 6.25 mg/kg/injection, schedule: Q01DX009 (ip), vehicle: saline with Tween-80 105 % of control | [2] 112 % of control | [3] 114 % of control

COC(=O)N1c2ccccc2C(c2ccccc2)=NC1(C)C#N (stereo unspecified)
inactive: dose: 60.0 mg/kg/injection, schedule: Q01DX005 (ip), vehicle: saline with Tween-80 98 % of control | dose: 120.0 mg/kg/injection, schedule: Q01DX005 (ip), vehicle: saline with Tween-80 99 % of control | dose: 240.0 mg/kg/injection, schedule: Q01DX005 (ip), vehicle: saline with Tween-80 100 % of control

NCc1nnn(Cc2ccccc2)c1N
inactive: [4] 90 % of control | [5] 92 % of control | dose: 200.0 mg/kg/injection, schedule: Q01DX009 (ip), vehicle: saline with Tween-80 92 % of control

C=CCn1nc([O-])[n+]2ccccc12
inactive: dose: 100.0 mg/kg/injection, schedule: Q01DX001 (ip), vehicle: saline 95 % of control | dose: 200.0 mg/kg/injection, schedule: Q01DX001 (ip), vehicle: saline 95 % of control | dose: 400.0 mg/kg/injection, schedule: Q01DX001 (ip), vehicle: saline 104 % of control

C[C@]12CC[C@H]3[C@@H](CCC4=C[C@@H](OC5OCC(OC6OC(CO)C(O)C(O)C6O)C(O)C5O)CC[C@@]43C=O)[C@@]1(O)CCC2C1=CC(=O)OC1 (stereo partly specified)
inactive: dose: 0.16 mg/kg/injection, schedule: Q01DX009 (ip), vehicle: saline 105 % of control | dose: 0.25 mg/kg/injection, schedule: Q01DX009 (ip), vehicle: saline with Tween-80 95 % of control | dose: 0.31 mg/kg/injection, schedule: Q01DX009 (ip), vehicle: saline 108 % of control | dose: 0.5 mg/kg/injection, schedule: Q01DX009 (ip), vehicle: saline with Tween-80 107 % of control and 95 % of control | dose: 0.63 mg/kg/injection, schedule: Q01DX009 (ip), vehicle: saline 103 % of control | dose: 1.0 mg/kg/injection, schedule: Q01DX009 (ip), vehicle: saline with Tween-80 117 % of control and 97 % of control | dose: 1.25 mg/kg/injection, schedule: Q01DX009 (ip), vehicle: saline 103 % of control

CCCCOP(=O)(OCCCC)OC(=C(F)F)C(F)(F)P(=O)(OCCCC)OCCCC
inactive: dose: 6.25 mg/kg/injection, schedule: Q01DX009 (ip), vehicle: Klucel (hydroxypropylcellulose) (HPC) 98 % of control | dose: 12.5 mg/kg/injection, schedule: Q01DX009 (ip), vehicle: Klucel (hydroxypropylcellulose) (HPC) 91 % of control | dose: 25.0 mg/kg/injection, schedule: Q01DX009 (ip), vehicle: Klucel (hydroxypropylcellulose) (HPC) 100 % of control
